Patent US20200017496A1 (priority 2017, published 2020)
Like-named read-outs stand apart in the source and are kept apart here.

Columns and labels:
Test in all cases: MIC of compounds alone and combined with antibacterials, broth microdilution (CLSI)
Format in all cases: cell-based
[1] = tested on: Escherichia coli (ECO) isolates; conditions: AF1 @ 4 μg/mL
How it was run: (§1)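 Inoculum 5·10^5 CFU/mL (final), log phase, ca-MHB; 16-20 h, 35° C, ambient air. MIC = lowest conc. with no visible growth; ATB MIC read at each compound level.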

[2] = tested on: Enterobacter cloacae (ECL) isolates
How it was run: as §1

[3] = tested on: Enterobacter aerogenes (EAE) isolates; conditions: for MIC ATB in combination: AF1 @ 4 μg/mL; for MIC: Klebsiella aerogenes, ATB alone, read-out: MIC
How it was run: as §1

C=CC1=C(C(=O)O)N2C(=O)[C@@H](NC(=O)/C(=N\O)c3csc(N)n3)[C@H]2SC1 [CDR, Cefdinir]
MIC ATB in combination ([1]; ECO 4133): <=0.25 μg/mL | MIC ATB in combination ([1]; ECO 5302): <=0.25 μg/mL | MIC ATB in combination ([1]; ECO 131119): <=0.25 μg/mL | MIC ATB in combination ([1]; ECO 180070): <=0.25 μg/mL | MIC ATB in combination ([1]; ECO 190314): <=0.25 μg/mL | MIC ATB in combination ([1]; ECO 190317): <=0.25 μg/mL | MIC ATB in combination ([1]; ECO 190457): <=0.25 μg/mL | MIC ATB in combination ([1]; ECO 190549): <=0.25 μg/mL | MIC ATB in combination ([1]; ECO 200159): <=0.25 μg/mL | MIC ATB in combination ([1]; ECO 200259): <=0.25 μg/mL | MIC ATB in combination ([1]; ECO 200344): <=0.25 μg/mL | MIC ATB in combination ([1]; ECO 260096): <=0.25 μg/mL | MIC ATB in combination ([1]; ECO 260304): <=0.25 μg/mL | MIC ATB in combination ([1]; ECO 260508): <=0.25 μg/mL | MIC ATB in combination ([1]; ECO RGN238): <=0.25 μg/mL | MIC ATB in combination ([1]; ECO UFR15): <=0.25 μg/mL | MIC ATB in combination ([1]; ECO UFR16): 1 µg/mL | MIC ATB in combination ([1]; ECO UFR18): 4 µg/mL | MIC ATB in combination ([1]; ECO UFR19): 2 µg/mL | MIC ATB in combination ([1]; ECO UFR20): 16 µg/mL | MIC ATB in combination ([1]; ECO UFR61O): 0.25 µg/mL | MIC ATB in combination ([1]; ECO UFR62): 0.5 µg/mL | MIC ATB in combination ([1]; ECO UFR74): 1 µg/mL | MIC ATB in combination ([1]; ECO UFR86): 1 µg/mL | MIC ATB in combination ([1]; ECO UFR174): <=0.25 μg/mL | MIC ATB in combination ([1]; ECO UFR175): 0.5 µg/mL | MIC ATB in combination ([1]; ECO UFR176): <=0.25 μg/mL | MIC ATB in combination ([1]; ECO UFR184): 16 µg/mL | MIC ATB in combination ([1]; ECO UFR186): 1 µg/mL | MIC ATB in combination ([1]; ECO UFR187): 0.5 µg/mL | MIC ATB in combination ([1]; ECO UFR189): <=0.25 μg/mL | MIC ATB in combination ([1]; ECO UFR190): 0.5 µg/mL | MIC ATB in combination ([1]; ECO UFR191): 1 µg/mL | MIC ATB in combination ([1]; ECO UFR207): <=0.25 μg/mL | MIC ATB in combination ([1]; ECO UFR209): <=0.25 μg/mL | MIC ATB in combination ([1]; ECO UFR210): <=0.25 μg/mL | MIC ATB in combination ([1]; ECO UFR211): <=0.25 μg/mL | MIC ATB in combination ([1]; ECO UFR212): 32 µg/mL | MIC ATB in combination ([1]; ECO UFR218): <=0.25 μg/mL | MIC ATB in combination ([2]; ECL 190310, AF1 @ 4 μg/mL): 64 µg/mL | MIC ATB in combination ([2]; ECL 190408, AF1 @ 4 μg/mL): <=0.25 μg/mL | MIC ATB in combination ([2]; ECL 200138, AF1 @ 4 μg/mL): 64 µg/mL | MIC ATB in combination ([2]; ECL 200322, AF1 @ 4 μg/mL): 4 µg/mL | MIC ATB in combination ([2]; ECL 260253, AF1 @ 4 μg/mL): 32 µg/mL | MIC ATB in combination ([2]; ECL 260323, AF1 @ 4 μg/mL): 64 µg/mL | MIC ATB in combination ([2]; ECL 260508, AF1 @ 4 μg/mL): 2 µg/mL | MIC ATB in combination ([2]; ECL NEM146383, AF1 @ 4 μg/mL): 32 µg/mL | MIC ATB in combination ([2]; ECL P99, AF1 @ 4 μg/mL): 16 µg/mL | MIC ATB in combination ([2]; ECL UFR12, AF1 @ 4 μg/mL): 4 µg/mL | MIC ATB in combination ([2]; ECL UFR13, AF1 @ 4 μg/mL): 16 µg/mL | MIC ATB in combination ([2]; ECL UFR14, AF1 @ 4 μg/mL): 32 µg/mL | MIC ATB in combination ([2]; ECL UFR60, AF1 @ 4 μg/mL): 8 µg/mL | MIC ATB in combination ([2]; ECL UFR70, AF1 @ 4 μg/mL): 4 µg/mL | MIC ATB in combination ([2]; ECL UFR84, AF1 @ 4 μg/mL): 64 µg/mL | MIC ATB in combination ([2]; ECL UFR85, AF1 @ 4 μg/mL): 8 µg/mL | MIC ATB in combination ([2]; ECL UFR194, AF1 @ 4 μg/mL): 2 µg/mL | MIC ATB in combination ([2]; ECL UFR200, AF1 @ 4 μg/mL): 2 µg/mL | MIC ATB in combination ([2]; strain ECL UFR195, antibacterial combined with AF1 @ 4 μg/mL): 4 µg/mL | MIC ATB in combination ([2]; strain ECL UFR196, antibacterial combined with AF1 @ 4 μg/mL): 16 µg/mL | MIC ATB in combination ([2]; strain ECL UFR197, antibacterial combined with AF1 @ 4 μg/mL): 8 µg/mL | MIC ATB in combination ([2]; strain ECL UFR198, antibacterial combined with AF1 @ 4 μg/mL): 32 µg/mL | MIC ATB in combination ([3]; EAE 49469): 16 µg/mL | MIC ATB in combination ([3]; EAE 200261): 8 µg/mL | MIC ATB in combination ([3]; EAE UFR199): 1 µg/mL | MIC ATB in combination ([3]; EAE UFR201): <=0.25 μg/mL | MIC ATB in combination ([3]; EAE UFR202): 4 µg/mL | MIC ATB in combination ([3]; EAE UFR213): 4 µg/mL | MIC ([3]; strain EAE 200261 (TEM-x, AmpC)): > 256 µg/mL | MIC ([3]; strain EAE UFR199 (TEM-1b, SHV-12, KPC-2, OXA-9)): > 256 µg/mL
